# Measurements taken from PubChem BioAssay (NCI).
#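 The compound was tested at five concentrations on cells cultured in 96-well plates, with a 48-hour exposure period. TGI: total growth inhibition.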
# Tests used:
# Assay in all cases: growth of human tumour cells (NCI), 48 h
# 786-0 renal = tested on: 786-0 renal
# A498 renal = tested on: A498 renal
# A549 NSCLC = tested on: A549 NSCLC
# ACHN renal = tested on: ACHN renal
# BT-549 breast = tested on: BT-549 breast
# CAKI-1 renal = tested on: CAKI-1 renal
# COLO 205 colon = tested on: COLO 205 colon
# DU-145 prostate = tested on: DU-145 prostate
# EKVX NSCLC = tested on: EKVX NSCLC
# HCC-2998 colon = tested on: HCC-2998 colon
# HCT-116 colon = tested on: HCT-116 colon
# HCT-15 colon = tested on: HCT-15 colon
# HL-60(TB) leukemia = tested on: HL-60(TB) leukemia
# HOP-62 NSCLC = tested on: HOP-62 NSCLC
# HOP-92 NSCLC = tested on: HOP-92 NSCLC
# HS 578T breast = tested on: HS 578T breast
# HT29 colon = tested on: HT29 colon
# IGROV1 ovarian = tested on: IGROV1 ovarian
# K-562 leukemia = tested on: K-562 leukemia
# KM12 colon = tested on: KM12 colon
# LOX IMVI melanoma = tested on: LOX IMVI melanoma
# M14 melanoma = tested on: M14 melanoma
# MALME-3M melanoma = tested on: MALME-3M melanoma
# MCF7 breast = tested on: MCF7 breast
# MDA-MB-231 breast = tested on: MDA-MB-231 breast
# MDA-MB-435 = tested on: MDA-MB-435
# MDA-N = tested on: MDA-N
# MOLT-4 leukemia = tested on: MOLT-4 leukemia
# NCI-H226 lung = tested on: NCI-H226 lung
# NCI-H23 lung = tested on: NCI-H23 lung
# NCI-H460 lung = tested on: NCI-H460 lung
# NCI-H522 lung = tested on: NCI-H522 lung
# NCI/ADR-RES ovarian = tested on: NCI/ADR-RES ovarian
# OVCAR-3 ovarian = tested on: OVCAR-3 ovarian
# OVCAR-4 ovarian = tested on: OVCAR-4 ovarian
# OVCAR-5 ovarian = tested on: OVCAR-5 ovarian
# OVCAR-8 ovarian = tested on: OVCAR-8 ovarian
# PC-3 prostate = tested on: PC-3 prostate
# RPMI-8226 leukemia = tested on: RPMI-8226 leukemia
# RXF 393 renal = tested on: RXF 393 renal
# SF-268 CNS = tested on: SF-268 CNS
# SF-295 CNS = tested on: SF-295 CNS
# SF-539 CNS = tested on: SF-539 CNS
# SK-MEL-2 melanoma = tested on: SK-MEL-2 melanoma
# SK-MEL-28 melanoma = tested on: SK-MEL-28 melanoma
# SK-MEL-5 melanoma = tested on: SK-MEL-5 melanoma
# SK-OV-3 ovarian = tested on: SK-OV-3 ovarian
# SN12C renal = tested on: SN12C renal
# SNB-19 CNS = tested on: SNB-19 CNS
# SNB-75 CNS = tested on: SNB-75 CNS
# SR leukemia = tested on: SR leukemia
# SW-620 colon = tested on: SW-620 colon
# T-47D breast = tested on: T-47D breast
# TK-10 renal = tested on: TK-10 renal
# U251 CNS = tested on: U251 CNS
# UACC-257 melanoma = tested on: UACC-257 melanoma
# UACC-62 melanoma = tested on: UACC-62 melanoma
# UO-31 renal = tested on: UO-31 renal
smiles,measurement,setting,value
N/C(=N\Nc1ccc(C(=O)O)cc1)c1cnccn1,TGI,786-0 renal,> 100 µM
same,TGI,A498 renal,> 100 µM
same,TGI,A549 NSCLC,> 100 µM
same,TGI,ACHN renal,> 100 µM
same,TGI,BT-549 breast,> 100 µM
same,TGI,CAKI-1 renal,> 100 µM
same,TGI,COLO 205 colon,> 100 µM
same,TGI,DU-145 prostate,> 100 µM
same,TGI,EKVX NSCLC,> 100 µM
same,TGI,HCC-2998 colon,> 100 µM
same,TGI,HCT-116 colon,> 100 µM
same,TGI,HCT-15 colon,> 100 µM
same,TGI,HL-60(TB) leukemia,0.166 µM
same,TGI,HOP-62 NSCLC,> 100 µM
same,TGI,HOP-92 NSCLC,> 100 µM
same,TGI,HS 578T breast,> 100 µM
same,TGI,HT29 colon,> 100 µM
same,TGI,IGROV1 ovarian,> 100 µM
same,TGI,K-562 leukemia,> 100 µM
same,TGI,KM12 colon,> 100 µM
same,TGI,LOX IMVI melanoma,> 100 µM
same,TGI,M14 melanoma,> 100 µM
same,TGI,MALME-3M melanoma,> 100 µM
same,TGI,MCF7 breast,> 100 µM
same,TGI,MDA-MB-231 breast,> 100 µM
same,TGI,MDA-MB-435,> 100 µM
same,TGI,MDA-N,> 100 µM
same,TGI,MOLT-4 leukemia,> 100 µM
same,TGI,NCI-H226 lung,> 100 µM
same,TGI,NCI-H23 lung,> 100 µM
same,TGI,NCI-H460 lung,> 100 µM
same,TGI,NCI-H522 lung,> 100 µM
same,TGI,NCI/ADR-RES ovarian,> 100 µM
same,TGI,OVCAR-3 ovarian,> 100 µM
same,TGI,OVCAR-4 ovarian,> 100 µM
same,TGI,OVCAR-5 ovarian,> 100 µM
same,TGI,OVCAR-8 ovarian,> 100 µM
same,TGI,PC-3 prostate,> 100 µM
same,TGI,RPMI-8226 leukemia,> 100 µM
same,TGI,RXF 393 renal,> 100 µM
same,TGI,SF-268 CNS,> 100 µM
same,TGI,SF-295 CNS,> 100 µM
same,TGI,SF-539 CNS,> 100 µM
same,TGI,SK-MEL-2 melanoma,> 100 µM
same,TGI,SK-MEL-28 melanoma,> 100 µM
same,TGI,SK-MEL-5 melanoma,> 100 µM
same,TGI,SK-OV-3 ovarian,> 100 µM
same,TGI,SN12C renal,> 100 µM
same,TGI,SNB-19 CNS,> 100 µM
same,TGI,SNB-75 CNS,> 100 µM
same,TGI,SR leukemia,> 100 µM
same,TGI,SW-620 colon,> 100 µM
same,TGI,T-47D breast,> 100 µM
same,TGI,TK-10 renal,> 100 µM
same,TGI,U251 CNS,> 100 µM
same,TGI,UACC-257 melanoma,> 100 µM
same,TGI,UACC-62 melanoma,> 100 µM
same,TGI,UO-31 renal,> 100 µM
Cc1cc(Cc2c(C)c(C)c(Cc3cc(C)cc(C(C)(C)C)c3O)c(C)c2C)c(O)c(C(C)(C)C)c1,TGI,786-0 renal,> 100 µM
same,TGI,A498 renal,> 100 µM
same,TGI,A549 NSCLC,> 100 µM
same,TGI,ACHN renal,> 100 µM
same,TGI,BT-549 breast,> 100 µM
same,TGI,CAKI-1 renal,> 100 µM
same,TGI,COLO 205 colon,> 100 µM
same,TGI,DU-145 prostate,> 100 µM
same,TGI,EKVX NSCLC,> 100 µM
same,TGI,HCT-116 colon,> 100 µM
same,TGI,HCT-15 colon,> 100 µM
same,TGI,HL-60(TB) leukemia,83.6 µM
same,TGI,HOP-62 NSCLC,> 100 µM
same,TGI,HOP-92 NSCLC,> 100 µM
same,TGI,HS 578T breast,> 100 µM
same,TGI,HT29 colon,> 100 µM
same,TGI,IGROV1 ovarian,> 100 µM
same,TGI,K-562 leukemia,> 100 µM
same,TGI,KM12 colon,> 100 µM
same,TGI,LOX IMVI melanoma,> 100 µM
same,TGI,M14 melanoma,> 100 µM
same,TGI,MALME-3M melanoma,> 100 µM
same,TGI,MCF7 breast,> 100 µM
same,TGI,MDA-MB-231 breast,> 100 µM
same,TGI,MDA-MB-435,> 100 µM
same,TGI,MDA-N,> 100 µM
same,TGI,MOLT-4 leukemia,> 100 µM
same,TGI,NCI-H226 lung,> 100 µM
same,TGI,NCI-H460 lung,> 100 µM
same,TGI,NCI-H522 lung,> 100 µM
same,TGI,NCI/ADR-RES ovarian,> 100 µM
same,TGI,OVCAR-3 ovarian,> 100 µM
same,TGI,OVCAR-4 ovarian,> 100 µM
same,TGI,OVCAR-5 ovarian,> 100 µM
same,TGI,OVCAR-8 ovarian,> 100 µM
same,TGI,PC-3 prostate,> 100 µM
same,TGI,RPMI-8226 leukemia,> 100 µM
same,TGI,RXF 393 renal,> 100 µM
same,TGI,SF-268 CNS,> 100 µM
same,TGI,SF-295 CNS,> 100 µM
same,TGI,SF-539 CNS,> 100 µM
same,TGI,SK-MEL-2 melanoma,> 100 µM
same,TGI,SK-MEL-28 melanoma,> 100 µM
same,TGI,SK-MEL-5 melanoma,> 100 µM
same,TGI,SK-OV-3 ovarian,> 100 µM
same,TGI,SN12C renal,> 100 µM
same,TGI,SNB-19 CNS,> 100 µM
same,TGI,SNB-75 CNS,> 100 µM
same,TGI,SR leukemia,> 100 µM
same,TGI,SW-620 colon,> 100 µM
same,TGI,T-47D breast,> 100 µM
same,TGI,TK-10 renal,> 100 µM
same,TGI,U251 CNS,> 100 µM
same,TGI,UACC-257 melanoma,> 100 µM
same,TGI,UACC-62 melanoma,> 100 µM
same,TGI,UO-31 renal,> 100 µM
